Reference: publication PMC7531004, “Discovery of gramicidin A analogues with altered activities by multidimensional screening of a one-bead-one-compound library” (Nature Communications, 2020)
Where a SMILES comes first, the peptide text is derived from it. [ ]: non-standard residue; d: D form. The star is where a group is joined. NHCH2CH2OH = OCCN*; For = O=C*

How the values were obtained:
[1] = system: Streptococcus pyogenes SSI-9; test: Antibacterial activity assay of bead-derived peptides (three concentrations); assay type: cell-based; parameters: key: +++: inhibition by the 640-fold diluted peptide solution; ++: inhibition by the 160-fold diluted solution; +: inhibition by the 40-fold diluted solution; -: no inhibition; settings: S. pyogenes, bead-derived peptide solution, three concentrations
Outline: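 Growth inhibition scored visually as precipitated bacteria after 37 °C, 18 h incubation. Streptococcus pyogenes SSI-9 inoculum of 2 × 10^5 CFU in Ca2+/Mg2+-adjusted Mueller Hinton broth plus 5% laked horse blood; peptides tested at three levels: stock, 4-fold and 16-fold DMSO dilutions.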

[2] = H+/Na+ transport assay of bead-derived peptides (one-point); assay type: biochemical; parameters: key: relative activity; mean of two control wells = 1.00; settings: bead-derived peptide solution, EYPC/EYPG LUVs;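 note: relative to parent gramicidin A activity set to 1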
Outline: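 Miniaturized 96-well format. LUVs with entrapped pyranine (1.0 mM) were exposed to peptide for 30 min at RT. Intensities were expressed relative to full lysis by Triton X-100 and no treatment, with control-well mean = 1.00.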

[3] = system: P388 mouse leukemia cells; settings: 92 h
Outline: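 Peptide stocks diluted 250× in growth medium; P388 cells 1 × 10^4 cells/mL final; 37 °C, 5% CO2, 92 h. WST-1 + 1-methoxy PMS, 4 h, A415. Output: % viability.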

Structure (SMILES) | antibacterial activity [1] | H+/Na+ transport activity normalized against the value of 1 (1.00) [2] | cell viability/% [3]
CC(C)C[C@@H](NC(=O)[C@H](C)NC(=O)CNC(=O)[C@@H](NC=O)C(C)C)C(=O)N[C@@H](C)C(=O)N[C@@H](C(=O)N[C@H](C(=O)N[C@H](CC(C)C)C(=O)N[C@@H](Cc1c[nH]c2ccccc12)C(=O)N[C@@H](C(=O)N[C@@H](Cc1c[nH]c2ccccc12)C(=O)N[C@H](CC(C)C)C(=O)N[C@@H](Cc1c[nH]c2ccccc12)C(=O)N[C@H](CC(C)C)C(=O)N[C@@H](Cc1c[nH]c2ccccc12)C(=O)NCCO)C(C)C)C(C)C)C(C)C [compound 8464] (For-VGA[dL]A[dV]V[dL]W[dV]W[dL]W[dL]W-NHCH2CH2OH) | - | 1.23 | 4.1%
CNC(=O)C[C@@H](NC(=O)[C@@H](NC(=O)[C@H](NC(=O)[C@H](C)NC(=O)[C@H](NC(=O)[C@H](C)NC(=O)CNC(=O)[C@@H](NC=O)C(C)C)C(C)C)C(C)C)C(C)C)C(=O)N[C@@H](Cc1c[nH]c2ccccc12)C(=O)N[C@H](CC(C)C)C(=O)N[C@@H](Cc1c[nH]c2ccccc12)C(=O)N[C@H](CC(C)C)C(=O)N[C@@H](Cc1c[nH]c2ccccc12)C(=O)N[C@H](CC(C)C)C(=O)N[C@@H](Cc1c[nH]c2ccccc12)C(=O)NCCO [compound 2218] (For-VGA[dV]A[dV]V[dD](NHMe)W[dL]W[dL]W[dL]W-NHCH2CH2OH) | - | 1.32 | 100.0%
CNC(=O)C[C@@H](NC(=O)[C@H](Cc1c[nH]c2ccccc12)NC(=O)[C@H](NC(=O)[C@H](Cc1c[nH]c2ccccc12)NC(=O)[C@@H](CC(C)C)NC(=O)[C@H](Cc1c[nH]c2ccccc12)NC(=O)[C@H](NC(=O)[C@@H](NC(=O)[C@@H](CC(C)C)NC(=O)[C@H](C)NC(=O)[C@H](NC(=O)[C@H](C)NC(=O)CNC(=O)[C@@H](NC=O)C(C)C)C(C)C)C(C)C)C(C)C)C(C)C)C(=O)N[C@@H](Cc1c[nH]c2ccccc12)C(=O)NCCO [compound 7228] (For-VGA[dV]A[dL]V[dV]W[dL]W[dV]W[dD](NHMe)W-NHCH2CH2OH) | - | 1.06 | 100.0%
CC(C)C[C@@H](NC(=O)[C@H](Cc1c[nH]c2ccccc12)NC(=O)[C@@H](CC(C)C)NC(=O)[C@H](Cc1c[nH]c2ccccc12)NC(=O)[C@H](NC(=O)[C@H](Cc1c[nH]c2ccccc12)NC(=O)[C@@H](CC(C)C)NC(=O)[C@@H](NC(=O)[C@H](NC(=O)[C@H](C)NC(=O)[C@H](NC(=O)[C@H](C)NC(=O)CNC(=O)[C@@H](NC=O)C(C)C)C(C)C)C(C)C)C(C)C)C(C)C)C(=O)N[C@@H](Cc1c[nH]c2ccccc12)C(=O)NCCO [compound 8999] (For-VGA[dV]A[dV]V[dL]W[dV]W[dL]W[dL]W-NHCH2CH2OH) | + | 1.03 | 96.1%
CNC(=O)C[C@@H](NC(=O)[C@@H](NC(=O)[C@@H](CC(C)C)NC(=O)[C@H](C)NC(=O)[C@@H](CC(C)C)NC(=O)[C@H](C)NC(=O)CNC(=O)[C@@H](NC=O)C(C)C)C(C)C)C(=O)N[C@@H](Cc1c[nH]c2ccccc12)C(=O)N[C@H](CC(C)C)C(=O)N[C@@H](Cc1c[nH]c2ccccc12)C(=O)N[C@H](CC(C)C)C(=O)N[C@@H](Cc1c[nH]c2ccccc12)C(=O)N[C@@H](C(=O)N[C@@H](Cc1c[nH]c2ccccc12)C(=O)NCCO)[C@H](C)O [compound 5746] (For-VGA[dL]A[dL]V[dD](NHMe)W[dL]W[dL]W[dT]W-NHCH2CH2OH) | - | 1.26 | 100.0%
CC(C)C[C@@H](NC(=O)[C@@H](NC(=O)[C@H](NC(=O)[C@H](C)NC(=O)[C@H](NC(=O)[C@H](C)NC(=O)CNC(=O)[C@@H](NC=O)C(C)C)C(C)C)C(C)C)C(C)C)C(=O)N[C@@H](Cc1c[nH]c2ccccc12)C(=O)N[C@@H](C(=O)N[C@@H](Cc1c[nH]c2ccccc12)C(=O)N[C@@H](C(=O)N[C@@H](Cc1c[nH]c2ccccc12)C(=O)N[C@@H](C(=O)N[C@@H](Cc1c[nH]c2ccccc12)C(=O)NCCO)C(C)C)C(C)C)C(C)C [compound 1873] (For-VGA[dV]A[dV]V[dL]W[dV]W[dV]W[dV]W-NHCH2CH2OH) | - | 1.09 | 100.0%
CNC(=O)C[C@@H](NC(=O)[C@H](Cc1c[nH]c2ccccc12)NC(=O)[C@H](NC(=O)[C@H](Cc1c[nH]c2ccccc12)NC(=O)[C@H](NC(=O)[C@H](Cc1c[nH]c2ccccc12)NC(=O)[C@@H](CC(C)C)NC(=O)[C@@H](NC(=O)[C@H](NC(=O)[C@H](C)NC(=O)[C@@H](CC(C)C)NC(=O)[C@H](C)NC(=O)CNC(=O)[C@@H](NC=O)C(C)C)C(C)C)C(C)C)C(C)C)C(C)C)C(=O)N[C@@H](Cc1c[nH]c2ccccc12)C(=O)NCCO [compound 6808] (For-VGA[dL]A[dV]V[dL]W[dV]W[dV]W[dD](NHMe)W-NHCH2CH2OH) | - | 1.02 | 100.0%
CC(C)C[C@@H](NC(=O)[C@H](C)NC(=O)[C@H](NC(=O)[C@H](C)NC(=O)CNC(=O)[C@@H](NC=O)C(C)C)[C@H](C)O)C(=O)N[C@H](C(=O)N[C@H](CC(C)C)C(=O)N[C@@H](Cc1c[nH]c2ccccc12)C(=O)N[C@@H](C(=O)N[C@@H](Cc1c[nH]c2ccccc12)C(=O)N[C@H](CC(C)C)C(=O)N[C@@H](Cc1c[nH]c2ccccc12)C(=O)N[C@@H](C(=O)N[C@@H](Cc1c[nH]c2ccccc12)C(=O)NCCO)C(C)C)[C@H](C)O)C(C)C [compound 1284] (For-VGA[dT]A[dL]V[dL]W[dT]W[dL]W[dV]W-NHCH2CH2OH) | - | 1.06 | 71.2%
CNC(=O)C[C@@H](NC(=O)[C@@H](NC(=O)[C@H](NC(=O)[C@H](C)NC(=O)[C@@H](CC(C)C)NC(=O)[C@H](C)NC(=O)CNC(=O)[C@@H](NC=O)C(C)C)C(C)C)C(C)C)C(=O)N[C@@H](Cc1c[nH]c2ccccc12)C(=O)N[C@@H](C(=O)N[C@@H](Cc1c[nH]c2ccccc12)C(=O)N[C@H](CC(C)C)C(=O)N[C@@H](Cc1c[nH]c2ccccc12)C(=O)N[C@@H](C(=O)N[C@@H](Cc1c[nH]c2ccccc12)C(=O)NCCO)C(C)C)C(C)C [compound 5185] (For-VGA[dL]A[dV]V[dD](NHMe)W[dV]W[dL]W[dV]W-NHCH2CH2OH) | - | 1.40 | 100.0%
CNC(=O)C[C@@H](NC(=O)[C@H](Cc1c[nH]c2ccccc12)NC(=O)[C@H](NC(=O)[C@H](Cc1c[nH]c2ccccc12)NC(=O)[C@@H](CC(C)C)NC(=O)[C@H](Cc1c[nH]c2ccccc12)NC(=O)[C@@H](CC(C)C)NC(=O)[C@@H](NC(=O)[C@@H](CC(C)C)NC(=O)[C@H](C)NC(=O)[C@@H](CC(C)C)NC(=O)[C@H](C)NC(=O)CNC(=O)[C@@H](NC=O)C(C)C)C(C)C)C(C)C)C(=O)N[C@@H](Cc1c[nH]c2ccccc12)C(=O)NCCO [compound 2764] (For-VGA[dL]A[dL]V[dL]W[dL]W[dV]W[dD](NHMe)W-NHCH2CH2OH) | - | 1.12 | 75.7%
CC(C)C[C@@H](NC(=O)[C@H](Cc1c[nH]c2ccccc12)NC(=O)[C@H](NC(=O)[C@H](Cc1c[nH]c2ccccc12)NC(=O)[C@H](NC(=O)[C@@H](NC(=O)[C@H](NC(=O)[C@H](C)NC(=O)[C@H](NC(=O)[C@H](C)NC(=O)CNC(=O)[C@@H](NC=O)C(C)C)C(C)C)C(C)C)C(C)C)C(C)C)C(C)C)C(=O)N[C@@H](Cc1c[nH]c2ccccc12)C(=O)N[C@@H](C(=O)N[C@@H](Cc1c[nH]c2ccccc12)C(=O)NCCO)C(C)C [compound 5678] (For-VGA[dV]A[dV]V[dV]W[dV]W[dL]W[dV]W-NHCH2CH2OH) | ++ | 1.11 | 93.2%
CC(C)C[C@@H](NC(=O)[C@H](C)NC(=O)CNC(=O)[C@@H](NC=O)C(C)C)C(=O)N[C@@H](C)C(=O)N[C@H](CC(C)C)C(=O)N[C@H](C(=O)N[C@H](CC(C)C)C(=O)N[C@@H](Cc1c[nH]c2ccccc12)C(=O)N[C@@H](C(=O)N[C@@H](Cc1c[nH]c2ccccc12)C(=O)N[C@H](CC(C)C)C(=O)N[C@@H](Cc1c[nH]c2ccccc12)C(=O)N[C@@H](C(=O)N[C@@H](Cc1c[nH]c2ccccc12)C(=O)NCCO)C(C)C)[C@H](C)O)C(C)C [compound 10499] (For-VGA[dL]A[dL]V[dL]W[dT]W[dL]W[dV]W-NHCH2CH2OH) | - | 1.14 | 100.0%
CC(C)C[C@@H](NC(=O)[C@H](C)NC(=O)[C@H](NC(=O)[C@H](C)NC(=O)CNC(=O)[C@@H](NC=O)C(C)C)C(C)C)C(=O)N[C@H](C(=O)N[C@@H](C(=O)N[C@@H](Cc1c[nH]c2ccccc12)C(=O)N[C@@H](C(=O)N[C@@H](Cc1c[nH]c2ccccc12)C(=O)N[C@H](CC(C)C)C(=O)N[C@@H](Cc1c[nH]c2ccccc12)C(=O)N[C@H](CC(C)C)C(=O)N[C@@H](Cc1c[nH]c2ccccc12)C(=O)NCCO)C(C)C)C(C)C)C(C)C [compound 7169] (For-VGA[dV]A[dL]V[dV]W[dV]W[dL]W[dL]W-NHCH2CH2OH) | + | 1.15 | 90.3%
